The results in this text go back to ChEMBL document CHEMBL3045571, “Repellent activity of essential oils and some of their individual constituents against Tribolium castaneum herbst” (J Agric Food Chem, 2011).

Data set [1] concerns Tribolium castaneum. Briefly: Repellent activity against Tribolium castaneum (red flour beetle) assessed as induction of repellency measured 2 hr post compound exposure at 0.2 uL/cm2 using 15% compound formulation. It counts as functional.
The test system of data set [2] is Tribolium castaneum. Briefly: Repellent activity against Tribolium castaneum (red flour beetle) assessed as induction of repellency measured 4 hr post compound exposure at 0.002 uL/cm2 using 15% compound formulation. It counts as functional.
The subject of data set [3] is Tribolium castaneum. Briefly: Repellent activity against Tribolium castaneum (red flour beetle) assessed as induction of repellency measured 4 hr post compound exposure at 0.02 uL/cm2 using 15% compound formulation. It counts as functional.
Data set [4] has as its system Tribolium castaneum. Briefly: Repellent activity against Tribolium castaneum (red flour beetle) assessed as induction of repellency measured 4 hr post compound exposure at 0.2 uL/cm2 using 15% compound formulation. Format: functional.
The test system of data set [5] is Tribolium castaneum. Briefly: Repellent activity against Tribolium castaneum (red flour beetle) assessed as induction of repellency measured 4 hr post compound exposure at 0.0002 uL/cm2 using 15% compound formulation. It counts as functional.
Data set [6] deals with Tribolium castaneum. Briefly: Repellent activity against Tribolium castaneum (red flour beetle) assessed as induction of repellency measured 2 hr post compound exposure at 0.002 uL/cm2 using 15% compound formulation. It counts as functional.
Data set [7] relates to Tribolium castaneum. Briefly: Repellent activity against Tribolium castaneum (red flour beetle) assessed as induction of repellency measured 2 hr post compound exposure at 0.02 uL/cm2 using 15% compound formulation. Format: functional.
The subject of data set [8] is Tribolium castaneum. Briefly: Repellent activity against Tribolium castaneum (red flour beetle) assessed as induction of repellency measured 2 hr post compound exposure at 0.00002 uL/cm2 using 15% compound formulation. Format: functional.
Data set [9] concerns Tribolium castaneum. Briefly: Repellent activity against Tribolium castaneum (red flour beetle) assessed as induction of repellency measured 4 hr post compound exposure at 0.00002 uL/cm2 using 15% compound formulation. Format: functional.
Data set [10] deals with Tribolium castaneum. Briefly: Repellent activity against Tribolium castaneum (red flour beetle) assessed as induction of repellency measured 2 hr post compound exposure at 0.0002 uL/cm2 using 15% compound formulation. It counts as functional.
The nature of data set [11]: Lipophilicity, logP of the compound. It counts as physicochemical. Particulars: octanol/water.

SMILES strings stand for the structures.

For orientation: logP means a log measure of how a compound divides between an organic and an aqueous phase. Low readings indicate a more hydrophilic compound, high ones a more lipophilic compound.

Regarding `C=C(C)[C@@H]1CC=C(C)C(=O)C1` [L-CARVONE], the Repellency in the data set on Tribolium castaneum [1] worked out at 100%; in the data set with Tribolium castaneum [2], 68%; in the data set with Tribolium castaneum [3], 74%; with Tribolium castaneum [4] it was 95%; in the data set with Tribolium castaneum [5] it was 44%; in the data set on Tribolium castaneum [6], 55%. In addition, the Repellency in the data set with Tribolium castaneum [7] was determined as 84%; in the data set with Tribolium castaneum [8], 21%; in the data set with Tribolium castaneum [9], 19%; with Tribolium castaneum [10], 35%.

With `O=C(OCc1ccccc1)c1ccccc1` [BENZYL BENZOATE], the Repellency turned out to be 93% in the data set on Tribolium castaneum [1]; 23% in the data set on Tribolium castaneum [2]; 44% with Tribolium castaneum [3]; 91% with Tribolium castaneum [4]; 18% in the data set with Tribolium castaneum [5]; 16% in the data set with Tribolium castaneum [6]. In addition, the Repellency in the data set with Tribolium castaneum [7] is given as 44%; in the data set with Tribolium castaneum [8], 3%; with Tribolium castaneum [9], 6%; in the data set with Tribolium castaneum [10], 14%.

For the compound `CCCCN(CCC(=O)OCC)C(C)=O`, the Repellency stood at 78% in the data set on Tribolium castaneum [1]; 40% in the data set on Tribolium castaneum [2]; 50% in the data set with Tribolium castaneum [3]; 75% in the data set on Tribolium castaneum [4]; 4% in the data set on Tribolium castaneum [5]; 54% with Tribolium castaneum [6]. In addition, the Repellency in the data set on Tribolium castaneum [7] was 60%; with Tribolium castaneum [8], 2%; in the data set with Tribolium castaneum [9], -6%; with Tribolium castaneum [10], 16%.

`CC(C)=CCCC(C)CCO` (configuration not stated) [CITRONELLOL]: the Repellency is 96% with Tribolium castaneum [1]; 60% in the data set with Tribolium castaneum [2]; 85% in the data set with Tribolium castaneum [3]; 96% in the data set on Tribolium castaneum [4]; 43% with Tribolium castaneum [5]; 59% in the data set on Tribolium castaneum [6]. In addition, the Repellency with Tribolium castaneum [7] was 74%; with Tribolium castaneum [8], 30%; in the data set with Tribolium castaneum [9], 40%; in the data set on Tribolium castaneum [10], 45%.

For the compound `CC(C)=CCC/C(C)=C\CO` [NEROL], the Repellency is 98% with Tribolium castaneum [1]; 60% in the data set on Tribolium castaneum [2]; 75% in the data set with Tribolium castaneum [3]; 95% with Tribolium castaneum [4]; 30% in the data set on Tribolium castaneum [5]; 64% in the data set on Tribolium castaneum [6]. In addition, the Repellency amounted to 84% in the data set on Tribolium castaneum [7], 8% in the data set on Tribolium castaneum [8], 8% in the data set on Tribolium castaneum [9] and 39% in the data set on Tribolium castaneum [10]. This compound returned a logP in [11] of 3.47.

As for `C=C(C)[C@H]1CC=C(C)C(=O)C1` [(S)(+)CARVONE], the Repellency was 96% with Tribolium castaneum [1]; 30% in the data set with Tribolium castaneum [2]; 85% in the data set on Tribolium castaneum [3]; 94% in the data set with Tribolium castaneum [4]; 21% in the data set with Tribolium castaneum [5]; 53% in the data set on Tribolium castaneum [6]. Besides, the Repellency in the data set on Tribolium castaneum [7] is 91%; with Tribolium castaneum [8], -10%; in the data set with Tribolium castaneum [9] it was -10%; with Tribolium castaneum [10], 45%. In data set [11], this compound displayed a logP of 3.07.

For the compound `CC(C)=CCC/C(C)=C/C=O` [CITRAL], the Repellency with Tribolium castaneum [1] is given as 98%; with Tribolium castaneum [2], 55%; in the data set on Tribolium castaneum [3] it was 79%; with Tribolium castaneum [4], 98%; in the data set with Tribolium castaneum [5] it was 51%; in the data set with Tribolium castaneum [6] it was 66%. The Repellency in the data set with Tribolium castaneum [7] is on record as 89%; with Tribolium castaneum [8] it was 18%; in the data set with Tribolium castaneum [9] it was 21%; in the data set on Tribolium castaneum [10], 64%.

Consider `C=CC(=C)CCC=C(C)C` [MYRCENE], for which the Repellency in the data set with Tribolium castaneum [1] is reported as 85%; with Tribolium castaneum [2] it was 65%; in the data set on Tribolium castaneum [3] it was 71%; in the data set with Tribolium castaneum [4], 93%; in the data set with Tribolium castaneum [5], 30%; in the data set on Tribolium castaneum [6], 56%. Also, the Repellency was 61% in the data set with Tribolium castaneum [7], 28% in the data set on Tribolium castaneum [8], 25% in the data set with Tribolium castaneum [9] and 33% in the data set on Tribolium castaneum [10].

For the compound `CC(=O)OC/C=C(\C)CCC=C(C)C` [GERANYL ACETATE], the Repellency in the data set on Tribolium castaneum [1] is reported as 95%; with Tribolium castaneum [2], 24%; in the data set with Tribolium castaneum [3], 63%; with Tribolium castaneum [4] it was 94%; in the data set with Tribolium castaneum [5], 23%; in the data set with Tribolium castaneum [6], 21%. In addition, the Repellency in the data set on Tribolium castaneum [7] turned out to be 60%; with Tribolium castaneum [8], 5%; in the data set on Tribolium castaneum [9] it was 8%; in the data set with Tribolium castaneum [10] it was 21%.

For the compound `Cc1ccc(C(C)C)cc1` [P-CYMENE], the Repellency was 74% in the data set on Tribolium castaneum [1]; 44% in the data set on Tribolium castaneum [2]; 45% in the data set on Tribolium castaneum [3]; 69% in the data set on Tribolium castaneum [4]; -8% in the data set on Tribolium castaneum [5]; 43% in the data set on Tribolium castaneum [6]. Further, the Repellency in the data set with Tribolium castaneum [7] is 61%; in the data set with Tribolium castaneum [8] it was -6%; in the data set on Tribolium castaneum [9] it was -5%; in the data set with Tribolium castaneum [10] it was -10%.

As to `O=C(OCc1ccccc1)c1ccccc1O` [BENZYL SALICYLATE], the Repellency turned out to be 94% in the data set on Tribolium castaneum [1]; 46% in the data set with Tribolium castaneum [2]; 78% in the data set on Tribolium castaneum [3]; 99% in the data set on Tribolium castaneum [4]; 25% in the data set on Tribolium castaneum [5]; 65% in the data set with Tribolium castaneum [6]. The Repellency in the data set with Tribolium castaneum [7] is 74%; in the data set on Tribolium castaneum [8], -29%; with Tribolium castaneum [9], -34%; in the data set on Tribolium castaneum [10], 29%.

With `Cc1ccc(C(C)C)cc1O` [CARVACROL], the Repellency with Tribolium castaneum [1] is on record as 86%; in the data set with Tribolium castaneum [2], -6%; in the data set on Tribolium castaneum [3] it was 48%; with Tribolium castaneum [4], 90%; with Tribolium castaneum [5] it was 8%; in the data set with Tribolium castaneum [6], -3%. In addition, the Repellency in the data set on Tribolium castaneum [7] was determined as 46%; in the data set on Tribolium castaneum [8] it was 8%; with Tribolium castaneum [9], 5%; in the data set with Tribolium castaneum [10] it was 9%.

Turning to `CC(C)=CCC/C(C)=C/CO` [GERANIOL], the Repellency in the data set on Tribolium castaneum [1] is on record as 98%; in the data set on Tribolium castaneum [2], 58%; with Tribolium castaneum [3] it was 74%; in the data set with Tribolium castaneum [4], 95%; with Tribolium castaneum [5], 35%; in the data set with Tribolium castaneum [6] it was 64%. Moreover, the Repellency is on record as 75% in the data set on Tribolium castaneum [7], 6% in the data set with Tribolium castaneum [8], 4% in the data set with Tribolium castaneum [9] and 43% with Tribolium castaneum [10].
